One assay deals with S. aureus (USA300). It is filed as cell-based, Staphylococcus aureus. To be noted: for MBC: USA300; for MIC: USA300, 16 h. As to the method:
(§1) Peptides were screened against Escherichia coli (BL21), Streptococcus pyogenes (M1T1 5448, hereby referred to as M1), Pseudomonas aeruginosa (PAO1), and Staphylococcus aureus (USA300). Overnight bacterial cultures were grown in optimal media for each species: Luria-Bertani (LB) broth for E. coli, P. aeruginosa, and S. aureus, and Todd-Hewitt (TH) broth for S. pyogenes. Cultures were pelleted and re-suspended in Mueller-Hinton (MH) broth for peptide screens or minimal inhibitory concentration (MIC) assays, with 1 × 10^6 CFU/mL bacteria added per well ([Wiegand et al., 2008]). MICs for each parent peptide were identified against each bacterial strain as previously described ([Fields et al., 2018]). Members of each peptide library were screened against each bacterial strain at half of the MIC of the corresponding parent peptide to identify library members with increased antimicrobial activity relative to the parent peptide. […] Minimal bactericidal concentrations (MBCs) were determined following the respective MIC assays by plating aliquots from wells corresponding to each peptide concentration from the 96-well plate used for the MIC on species-appropriate agar. Plates were incubated at 37°C overnight, and MBCs were identified as the lowest concentrations of peptide at which no colonies were obtained. A Synergy H1 Microplate Reader (BioTek, Winooski, VT, United States) was used to determine the MICs and identify peptides with greater antimicrobial activity than the corresponding parent peptide by measuring OD 600 of the bacterial cultures in 96-well microtiter plates.

The subject of the next assay is P. aeruginosa (PAO1). It is filed as cell-based, Pseudomonas aeruginosa. The conditions noted are these: for MBC: PAO1; for MIC: PAO1, 16 h. As to the method:
as §1

A further assay deals with E. coli (BL21). It is filed as cell-based, Escherichia coli. To be noted: for MBC: BL21; for MIC: BL21, 16 h. As for the experimental part: as §1
A further assay concerns S. pyogenes (M1). It is filed as cell-based, Streptococcus pyogenes. To be noted: for MBC: M1. As for the experimental part: as §1

Where two headings read alike, the source gives them in different places. Residues, ends and D or L forms follow the SMILES beside them.

As usually defined, the MBC is the lowest tested concentration that kills the bacteria rather than only halting them. Usually MIC stands for the lowest concentration that inhibits growth of the organism. On to `CC[C@H](C)[C@H](NC(=O)[C@H](CCCCN)NC(=O)[C@H](CCCCN)NC(=O)[C@H](CCCCN)NC(=O)[C@H](CC(C)C)NC(=O)[C@H](Cc1ccccc1)NC(=O)[C@H](CCC(N)=O)NC(=O)[C@H](CCCNC(=N)N)NC(=O)[C@@H](NC(=O)[C@@H](NC(=O)[C@H](CCC(=O)O)NC(=O)[C@H](CCCCN)NC(=O)CNC(=O)[C@H](C)N)[C@@H](C)O)[C@@H](C)CC)C(=O)N[C@@H](CCC(N)=O)C(=O)N[C@@H](CCC(=O)O)C(=O)N[C@@H](CCCCN)C(=O)NCC(=O)N[C@@H](CCCCN)C(=O)N[C@@H](CCCNC(=N)N)C(=O)N[C@@H](C)C(=O)N[C@H](C(=O)N[C@H](C(=O)N[C@@H](C)C(=O)N[C@@H](Cc1c[nH]c2ccccc12)C(=O)O)[C@@H](C)CC)[C@@H](C)O` [Syn-larvacin-1] (H-AGKETIRQFLKKKIQEKGKRATIAW-OH; N-terminus and C-terminus assumed), for which the MBC with S. aureus (USA300) was greater than 128 µM; in the assay with P. aeruginosa (PAO1), greater than 128 µM; with E. coli (BL21), greater than 128 µM; in the assay with S. pyogenes (M1) it was 64 µM. In addition, the minimal inhibitory concentration (MIC) in the assay on S. aureus (USA300) was greater than 128 µM; in the assay with P. aeruginosa (PAO1), greater than 128 µM; in the assay with E. coli (BL21), 32 µM; with S. pyogenes (M1) (M1, 16 h) it was 8 µM.
For the compound `CC[C@H](C)[C@H](NC(=O)[C@H](CCCCN)NC(=O)[C@H](CCCCN)NC(=O)CNC(=O)[C@H](CCC(=O)O)NC(=O)[C@H](CCC(N)=O)NC(=O)[C@@H](NC(=O)[C@H](Cc1c[nH]c2ccccc12)NC(=O)[C@H](CCCCN)NC(=O)[C@H](CCCCN)NC(=O)[C@H](CC(C)C)NC(=O)[C@H](CCCNC(=N)N)NC(=O)[C@H](CCC(N)=O)NC(=O)[C@H](Cc1ccccc1)NC(=O)[C@@H](NC(=O)[C@H](CCCCN)NC(=O)[C@H](CCC(=O)O)NC(=O)[C@@H](NC(=O)CNC(=O)[C@H](C)N)[C@@H](C)O)[C@@H](C)CC)[C@@H](C)CC)C(=O)N[C@@H](C)C(=O)N[C@@H](CCCCN)C(=O)N[C@@H](CCCNC(=N)N)C(=O)N[C@@H](C)C(=O)N[C@@H](Cc1c[nH]c2ccccc12)C(=O)O` [Syn-larvacin-31] (H-AGTEKIFQRLKKWIQEGKKIAKRAW-OH; N-terminus and C-terminus assumed), the MBC was determined as 8 µM in the assay on S. aureus (USA300), 128 µM in the assay with P. aeruginosa (PAO1), 1 µM in the assay on E. coli (BL21) and 0.25 µM with S. pyogenes (M1). Further, the MIC turned out to be 8 µM in the assay on S. aureus (USA300); 64 µM with P. aeruginosa (PAO1); 1 µM in the assay with E. coli (BL21); 0.25 µM in the assay with S. pyogenes (M1) (M1, 16 h).
Regarding `CC[C@H](C)[C@H](NC(=O)[C@H](CCCCN)NC(=O)[C@H](CCCCN)NC(=O)[C@H](Cc1c[nH]c2ccccc12)NC(=O)[C@H](CCC(=O)O)NC(=O)[C@H](CC(N)=O)NC(=O)[C@@H](NC(=O)[C@@H](NC(=O)[C@H](CCCCN)NC(=O)[C@H](CCCCN)NC(=O)[C@H](CC(C)C)NC(=O)[C@H](CCCNC(=N)N)NC(=O)[C@H](CC(N)=O)NC(=O)[C@H](Cc1ccccc1)NC(=O)[C@@H](NC(=O)[C@H](CCCCN)NC(=O)[C@H](CCC(=O)O)NC(=O)[C@@H](NC(=O)CNC(=O)[C@H](C)N)[C@@H](C)O)[C@@H](C)CC)[C@@H](C)O)[C@@H](C)CC)C(=O)N[C@@H](C)C(=O)N[C@@H](CCCCN)C(=O)N[C@@H](CCCNC(=N)N)C(=O)N[C@@H](C)C(=O)N[C@@H](Cc1c[nH]c2ccccc12)C(=O)O` [Syn-larvacin-48] (H-AGTEKIFNRLKKTINEWKKIAKRAW-OH; N-terminus and C-terminus assumed), the minimal bactericidal concentration (MBC) in the assay on S. aureus (USA300) turned out to be 8 µM; in the assay on P. aeruginosa (PAO1), 32 µM; in the assay on E. coli (BL21), 4 µM; in the assay with S. pyogenes (M1), 8 µM. The MIC with S. aureus (USA300) was found to be 8 µM; in the assay on P. aeruginosa (PAO1) it was 16 µM; in the assay on E. coli (BL21), 4 µM; in the assay on S. pyogenes (M1) (M1, 16 h) it was 8 µM.
Take `CC[C@H](C)[C@H](NC(=O)[C@H](CCC(=O)O)NC(=O)[C@H](CCCNC(=N)N)NC(=O)[C@H](CCCNC(=N)N)NC(=O)[C@H](CC(C)C)NC(=O)[C@H](Cc1ccc(O)cc1)NC(=O)[C@H](C)NC(=O)[C@H](CCCCN)NC(=O)[C@@H](NC(=O)[C@@H](NC(=O)[C@H](CCC(N)=O)NC(=O)[C@H](CCCNC(=N)N)NC(=O)CNC(=O)[C@H](C)N)[C@@H](C)O)[C@@H](C)CC)C(=O)N[C@@H](CCCNC(=N)N)C(=O)N[C@@H](CCCCN)C(=O)N[C@@H](CCCNC(=N)N)C(=O)NCC(=O)N[C@@H](CCCNC(=N)N)C(=O)N[C@@H](CCCCN)C(=O)N[C@@H](C)C(=O)N[C@H](C(=O)N[C@H](C(=O)N[C@@H](C)C(=O)N[C@@H](Cc1c[nH]c2ccccc12)C(=O)O)[C@@H](C)CC)C(C)C` [Syn-sordellicin-1] (H-AGRQTIKAYLRREIRKRGRKAVIAW-OH; N-terminus and C-terminus assumed): the MBC with S. aureus (USA300) is greater than 128 µM; in the assay with P. aeruginosa (PAO1), 16 µM; in the assay on E. coli (BL21) it was 8 µM; in the assay with S. pyogenes (M1), 8 µM. In addition, the MIC in the assay with S. aureus (USA300) was greater than 128 µM; in the assay with P. aeruginosa (PAO1), 16 µM; in the assay on E. coli (BL21) it was 8 µM; in the assay with S. pyogenes (M1) (M1, 16 h) it was 8 µM.
As for `CC[C@H](C)[C@H](NC(=O)[C@H](CCCNC(=N)N)NC(=O)[C@H](C)NC(=O)[C@H](CCCCN)NC(=O)[C@H](CCCNC(=N)N)NC(=O)CNC(=O)[C@@H](NC(=O)[C@H](CCCCN)NC(=O)[C@H](CCCNC(=N)N)NC(=O)[C@@H](NC(=O)[C@H](CCC(=O)O)NC(=O)[C@H](CCCNC(=N)N)NC(=O)[C@H](CCCNC(=N)N)NC(=O)[C@H](CC(C)C)NC(=O)[C@H](Cc1ccc(O)cc1)NC(=O)[C@H](C)NC(=O)[C@H](CCCCN)NC(=O)[C@@H](NC(=O)[C@H](Cc1c[nH]c2ccccc12)NC(=O)[C@H](CCC(N)=O)NC(=O)[C@H](CCCNC(=N)N)NC(=O)CNC(=O)[C@H](C)N)[C@@H](C)CC)[C@@H](C)CC)C(C)C)C(=O)N[C@@H](C)C(=O)N[C@@H](Cc1c[nH]c2ccccc12)C(=O)O` [Syn-sordellicin-45] (H-AGRQWIKAYLRREIRKVGRKARIAW-OH; N-terminus and C-terminus assumed), the MBC in the assay on S. aureus (USA300) was determined as 32 µM; with P. aeruginosa (PAO1), 32 µM; with E. coli (BL21) it was 1 µM; in the assay with S. pyogenes (M1), 2 µM. Besides, the MIC was determined as 32 µM in the assay with S. aureus (USA300); 16 µM in the assay on P. aeruginosa (PAO1); 1 µM in the assay on E. coli (BL21); 2 µM in the assay on S. pyogenes (M1) (M1, 16 h).
On to `CC[C@H](C)[C@H](NC(=O)[C@H](Cc1ccccc1)NC(=O)[C@H](C)NC(=O)[C@H](CCCCN)NC(=O)[C@H](CCCCN)NC(=O)CNC(=O)[C@H](CCCNC(=N)N)NC(=O)[C@H](CCCCN)NC(=O)[C@H](CCCNC(=N)N)NC(=O)[C@H](CC(C)C)NC(=O)[C@H](CCC(=O)O)NC(=O)[C@H](CCC(=O)O)NC(=O)[C@H](CCCCN)NC(=O)[C@H](CC(C)C)NC(=O)[C@H](Cc1ccc(O)cc1)NC(=O)[C@H](CC(C)C)NC(=O)[C@@H](NC(=O)[C@H](CC(C)C)NC(=O)[C@H](C)NC(=O)[C@H](CCC(N)=O)NC(=O)[C@H](CCCNC(=N)N)NC(=O)CNC(=O)[C@H](C)N)[C@@H](C)O)C(=O)N[C@@H](C)C(=O)N[C@@H](Cc1c[nH]c2ccccc12)C(=O)O` [Syn-xiamencin-1] (H-AGRQALTLYLKEELRKRGKKAFIAW-OH; N-terminus and C-terminus assumed), for which the minimal bactericidal concentration (MBC) in the assay with S. aureus (USA300) is greater than 128 µM; in the assay with P. aeruginosa (PAO1) it was greater than 128 µM; with E. coli (BL21), 32 µM; with S. pyogenes (M1) it was 16 µM. For the same compound, the minimal inhibitory concentration (MIC) is greater than 128 µM in the assay with S. aureus (USA300); greater than 128 µM with P. aeruginosa (PAO1); 32 µM in the assay on E. coli (BL21); 16 µM with S. pyogenes (M1) (M1, 16 h).
As to `CC[C@H](C)[C@H](NC(=O)[C@H](CCCCN)NC(=O)CNC(=O)[C@H](Cc1ccccc1)NC(=O)[C@H](CCCCN)NC(=O)[C@H](CCCNC(=N)N)NC(=O)[C@H](CC(C)C)NC(=O)[C@H](Cc1ccc(O)cc1)NC(=O)[C@H](CCC(=O)O)NC(=O)[C@H](CC(C)C)NC(=O)[C@H](CC(C)C)NC(=O)[C@H](CCC(=O)O)NC(=O)[C@H](CCCCN)NC(=O)[C@@H](NC(=O)[C@H](CC(C)C)NC(=O)[C@H](CCCNC(=N)N)NC(=O)[C@H](CCC(N)=O)NC(=O)[C@H](C)NC(=O)CNC(=O)[C@H](C)N)[C@@H](C)O)C(=O)N[C@@H](C)C(=O)N[C@@H](CCCNC(=N)N)C(=O)N[C@@H](CCCCN)C(=O)N[C@@H](C)C(=O)N[C@@H](Cc1c[nH]c2ccccc12)C(=O)O` [Syn-xiamencin-7] (H-AGAQRLTKELLEYLRKFGKIARKAW-OH; N-terminus and C-terminus assumed), the minimal bactericidal concentration (MBC) in the assay on S. aureus (USA300) was greater than 128 µM; in the assay with P. aeruginosa (PAO1) it was 128 µM; in the assay with E. coli (BL21), 4 µM; in the assay with S. pyogenes (M1), 0.5 µM. The minimal inhibitory concentration (MIC) was greater than 128 µM in the assay with S. aureus (USA300), 64 µM in the assay with P. aeruginosa (PAO1), 4 µM in the assay on E. coli (BL21) and 0.5 µM in the assay with S. pyogenes (M1) (S. pyogenes M1).

The values are drawn from article PMC7689250, “Synthetic Peptide Libraries Designed From a Minimal Alpha-Helical Domain of AS-48-Bacteriocin Homologs Exhibit Potent Antibacterial Activity” (Frontiers in Microbiology, 2020).
